In the oligonucleotide strings, read from the 5' end, every base follows the letter of its sugar. An asterisk marks phosphorothioate; unmarked linkages are phosphodiester. Other units and linkages are bracketed, terminal groups are in braces. A string of capitals states the bases alone. m = 2'-O-methyl

For this data set, the target named is T1, TLR8 (Homo sapiens, UniProt Q9NR97).
T1 sequence (Q9NR97 27-1041): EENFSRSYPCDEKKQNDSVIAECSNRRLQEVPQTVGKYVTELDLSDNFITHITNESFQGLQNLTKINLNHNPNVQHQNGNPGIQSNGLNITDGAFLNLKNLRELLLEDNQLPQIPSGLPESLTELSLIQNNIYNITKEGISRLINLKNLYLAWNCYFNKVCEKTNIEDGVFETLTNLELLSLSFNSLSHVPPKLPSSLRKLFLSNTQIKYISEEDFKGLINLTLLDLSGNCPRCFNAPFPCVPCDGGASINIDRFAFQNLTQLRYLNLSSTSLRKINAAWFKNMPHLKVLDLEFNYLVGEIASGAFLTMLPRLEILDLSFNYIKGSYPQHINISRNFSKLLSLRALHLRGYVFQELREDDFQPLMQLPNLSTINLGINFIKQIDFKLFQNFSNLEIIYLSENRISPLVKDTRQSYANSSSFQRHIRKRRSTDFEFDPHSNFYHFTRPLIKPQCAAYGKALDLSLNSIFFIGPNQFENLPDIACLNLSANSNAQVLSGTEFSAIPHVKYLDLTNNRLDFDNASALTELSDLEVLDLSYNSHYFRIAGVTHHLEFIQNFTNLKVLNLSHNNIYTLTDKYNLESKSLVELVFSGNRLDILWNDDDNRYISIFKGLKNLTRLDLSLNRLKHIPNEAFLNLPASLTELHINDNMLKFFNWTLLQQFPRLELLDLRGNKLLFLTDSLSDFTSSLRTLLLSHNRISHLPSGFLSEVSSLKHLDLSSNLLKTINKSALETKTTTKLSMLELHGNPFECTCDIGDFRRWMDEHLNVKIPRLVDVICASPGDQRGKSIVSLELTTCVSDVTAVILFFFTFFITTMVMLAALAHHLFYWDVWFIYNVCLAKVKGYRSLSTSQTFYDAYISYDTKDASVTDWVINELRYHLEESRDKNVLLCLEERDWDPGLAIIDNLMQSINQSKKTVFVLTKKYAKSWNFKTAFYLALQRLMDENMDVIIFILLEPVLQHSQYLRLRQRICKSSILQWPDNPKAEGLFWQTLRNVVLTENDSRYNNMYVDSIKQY
Description: HEK-TLR8 NF-κB-luciferase reporter, R848 or Motolimod stimulation (potentiation or inhibition). More on the design: expressed in transfected cells; host or cells: 293XLhTLR8 (HEK293). Format: cell-based. To be noted: for TLR8 100 nM (averaged NF-κB-Luciferase level relative to R848 condition, fold increase): ASO 100 nM; for TLR8 100 nM (averaged NF-κB-Luciferase level relative to R848 condition, fold increase) / TLR8 500 nM (averaged NF-κB-Luciferase level relative to R848 condition, fold increase): relative to R848 only; for TLR8 500 nM (averaged NF-κB-Luciferase level relative to R848 condition, fold increase): ASO 500 nM; for TLR8 HEK 5 uM: 3mer 2'OMe ASO at 5 uM, value relative to Ligand only = 1.000, NT = 0.000; for effect of 3-mer 2′OMe PS oligos on TLR8 sensing in HEK-TLR8 (in words): 5 μM naked 3-mer, Motolimod. Here is the method:
(§1) In such examples, potentiation of TLR8 activity can be identified by observation of an overall increased TLR8 response of the cell population, or a higher proportion of cells having TLR8-positive activity as compared to a negative control condition in which cells are treated with TLR8 agonist in the absence of the oligonucleotide (or in the presence of an appropriate control non-potentiating agent). In one example, 293XLhTLR8 (referred to as HEK-TLR8) cells are transfected with pNF-κB-Luc4 reporter, incubated with an oligonucleotide, and then stimulated with R848. TLR8 activity can be determined by a luciferase assay, which measures activated NF-κB by luminescence. TLR8 activity can also be analysed by measuring cytokine levels, for example by ELISA.
as §1, with “inhibition” for “potentiation”, “decreased” for “increased”, “lower” for “higher”, “positive” for “negative”, “inhibitory” for “non-potentiating”
For cGAS stimulations, cells were treated for indicated duration with ASOs, prior to transfection with ISD70 (human cells) or ISD45 (mouse cells) (the ASOs were not washed off prior to ISD transfection unless otherwise indicated). The cGAS ligands ISD45 (Stetson and Medzhitov, 2006) and ISD70 (also known as VACV-70 (Unterholzner et al., 2010)) (Table 1) were resuspended as follows: 5 1d of sense and 5 μl of antisense strands at 10 μg/μl were added to 90 μl PBS under sterile conditions, heated at 75° C. for 30 min, prior to letting cool down at room temperature and aliquoting (stock at 1 μg/1 l). The ISDs were transfected at a concentration of […] at a ratio of 1 μg:1 μl with Lipofectamine 2000 in Opti-MEM (Thermo Fisher Scientific). HEK-TLR3, HEK-TLR7 and […] were treated with indicated concentration of ASOs for 20-50 min, prior to stimulation with poly(I:C) (Invivogen), R848 (Invivogen), Motolimod (MedChemExpress) and the Class B CpG oligonucleotides ODN 2006 (synthesised by IDT and resuspended in RNase-free TE buffer [Table 1]), respectively. The TLR2/1 agonist PAM3CSK4 (Invivogen), the TLR4 agonist lipopolysaccharide (Invivogen), the Class B CpG oligonucleotides ODN 1826 (synthesised by IDT and resuspended in RNase-free TE buffer), the mouse Sting agonist DMXAA (Cayman) and the human STING agonist (compound #3 from (Raanjulu et al., 2018), referred to as GSK herein—kind gift from Cancer Therapeutics CRC, Australia) were used at indicated concentrations. Aspirin (Sigma—A2093) was resuspended in pure medium to 10 mM, filter sterilised and added to the cells at 2 mM final. All ASOs were synthesised by Integrated DNA Technologies (IDT), and resuspended in RNase-free TE buffer, pH 8.0 (Thermo Fisher Scientific). Cell viability was assessed by adding 1× fresh resazurin solution to the wells (10λ solution made up with 7 mg resazurin [Sigma—R7017] dissolved in 3.5 ml PBS, sterile filtered at […]) for 4 h, prior to reading at with a Fluostar OPTIMA (BMG LABTECH) plate-reader (fluorescence: Excitation 535 nm, Emission 590); wells with medium only and 1× resazurin were used as blanks.
For orientation: A reporter such as luciferase makes a cellular process visible.

On to “GTCCCCTGTTGACTGG (antisense; LNA-modified, pattern not given here) [HPRT LNA-489 KL]”, for which the “TLR8 100 nM (averaged NF-κB-Luciferase level relative to R848 condition, fold increase)” value stood at 0.335 and the “TLR8 500 nM (averaged NF-κB-Luciferase level relative to R848 condition, fold increase)” value turned out to be 0.304. Regarding “mGmAmU (mG*mA*mU) [GAU, 3-mer 2′OMe PS oligo]”, the “TLR8 HEK 5 uM” value stood at 0.528 and the “effect of 3-mer 2′OMe PS oligos on TLR8 sensing in HEK-TLR8 (in words)” value (“effect of 3-mer 2′OMe PS oligos” for short) is “robustly the most potent”. As for “ACACTTCGTGGGGTCC (antisense; LNA-modified, pattern not given here) [HPRT LNA-665 V1]”, the “TLR8 100 nM (averaged NF-κB-Luciferase level relative to R848 condition, fold increase)” value was 0.422 and the “TLR8 500 nM (averaged NF-κB-Luciferase level relative to R848 condition, fold increase)” value was determined as 1.029. On to UCC (mU*mC*mC), for which the “TLR8 HEK 5 uM” value was determined as 1.292. Consider UCU (mU*mC*mU), for which the “TLR8 HEK 5 uM” value stood at 1.414.

For the substance “GATAGCACCTTCAGCA (antisense; LNA-modified, pattern not given here) [CTNN2B-1294 LNA KL]”, the “TLR8 100 nM (averaged NF-κB-Luciferase level relative to R848 condition, fold increase)” value worked out at 0.821 and the “TLR8 500 nM (averaged NF-κB-Luciferase level relative to R848 condition, fold increase)” value worked out at 2.863. The like results for “TTTTGGCTGGGATCAA (antisense; LNA-modified, pattern not given here) [CAMSAP1-4697 LNA KL]” were, in that order, 0.542 and 1.412. Consider “GCAGGCTCAGTGATGT (antisense; LNA-modified, pattern not given here) [CTNN2B-1642 LNA V1]”, for which the “TLR8 100 nM (averaged NF-κB-Luciferase level relative to R848 condition, fold increase)” value is 0.638 and the “TLR8 500 nM (averaged NF-κB-Luciferase level relative to R848 condition, fold increase)” value was 1.440. Consider “dC*dC*dA (CCA; listed as DNA, chemistry not fully specified)”, for which the “TLR8 HEK 5 uM” value was 0.946. As to mUmCmG (antisense mU*mC*mG) [660-3b], the “TLR8 HEK 5 uM” value was 2.839 and the “effect of 3-mer 2′OMe PS oligos” value was “potentiated the sensing of R848”. For the substance UUC (mU*mU*mC), the “TLR8 HEK 5 uM” value was determined as 0.968. Same read-out and setting: next, GCU (mG*mC*mU): 0.810; ACU (antisense mA*mC*mU): 0.896.

With “TCGTAGTTGCTTCCTA (antisense; LNA-modified, pattern not given here) [MB21D1-1181 LNA KL]”, the “TLR8 100 nM (averaged NF-κB-Luciferase level relative to R848 condition, fold increase)” value is listed as 0.557 and the “TLR8 500 nM (averaged NF-κB-Luciferase level relative to R848 condition, fold increase)” value is 1.583. The like results for “GCCATCCACTTGATAG (antisense; LNA-modified, pattern not given here) [EGFR-2874 LNA V1]” were, in that order, 0.440 and 0.681. Consider “dA*dA*dA (DNA AAA; listed as DNA, chemistry not fully specified)”, for which the “TLR8 HEK 5 uM” value was determined as 0.859. On to “GCCATGCTGGCTCGGA (antisense; LNA-modified, pattern not given here) [CAMSAP1-2584 LNA V1]”, for which the “TLR8 100 nM (averaged NF-κB-Luciferase level relative to R848 condition, fold increase)” value was 0.446 and the “TLR8 500 nM (averaged NF-κB-Luciferase level relative to R848 condition, fold increase)” value amounted to 0.363. On to “mGmUmU (mG*mU*mU) [GUU, 3-mer 2′OMe PS oligo]”, for which the “TLR8 HEK 5 uM” value is recorded as 0.668 and the “effect of 3-mer 2′OMe PS oligos” value is recorded as “robustly inhibitory”.

Turning to “CAACACTTCGTGGGGT (antisense; LNA-modified, pattern not given here) [HPRT LNA-667 V1]”, the “TLR8 100 nM (averaged NF-κB-Luciferase level relative to R848 condition, fold increase)” value is listed as 0.591 and the “TLR8 500 nM (averaged NF-κB-Luciferase level relative to R848 condition, fold increase)” value came to 0.690.

Regarding UUU (mU*mU*mU), the “TLR8 HEK 5 uM” value came out at 0.870. On the same count and under the same terms, the figure for UAU (mU*mA*mU) is 0.887.

Turning to “GTATCGAAAGAGTCTG (antisense; LNA-modified, pattern not given here) [EGFR-3908 LNA KL]”, the “TLR8 100 nM (averaged NF-κB-Luciferase level relative to R848 condition, fold increase)” value stood at 0.637 and the “TLR8 500 nM (averaged NF-κB-Luciferase level relative to R848 condition, fold increase)” value came out at 1.781. Take mCmUmU (antisense mC*mU*mU) [660-3]: the “TLR8 HEK 5 uM” value is listed as 0.712. Still for that read-out and setting: the figure for CAU (mC*mA*mU) is 0.752; for UUA (mU*mU*mA) it is 1.060; for UAA (mU*mA*mA) it is 0.907. “TGGCCTCCCATCTCCT (antisense; LNA-modified, pattern not given here) [HPRT LNA-329 V1]”: the “TLR8 100 nM (averaged NF-κB-Luciferase level relative to R848 condition, fold increase)” value turned out to be 0.495 and the “TLR8 500 nM (averaged NF-κB-Luciferase level relative to R848 condition, fold increase)” value turned out to be 1.127.

With “mGmUmC (mG*mU*mC) [GUC, 3-mer 2′OMe PS oligo]”, the “TLR8 HEK 5 uM” value stood at 0.763 and the “effect of 3-mer 2′OMe PS oligos” value is “robustly inhibitory”. Take “mUmGmG (mU*mG*mG) [UGG, 3-mer 2′OMe PS oligo]”: the “TLR8 HEK 5 uM” value amounted to 1.860 and the “effect of 3-mer 2′OMe PS oligos” value is recorded as “potentiated the sensing of R848”. Turning to UAG (mU*mA*mG), the “TLR8 HEK 5 uM” value was determined as 1.443. As for AGU (antisense mA*mG*mU), the “TLR8 HEK 5 uM” value came out at 1.329. On the same count and under the same terms, next, “dC*dG*dA (CGA; listed as DNA, chemistry not fully specified)”: 1.512; UGC (mU*mG*mC): 1.032; “dA*dA*dG (DNA AAG; listed as DNA, chemistry not fully specified)”: 0.858.

As to “dC*dC*dG (CCG; listed as DNA, chemistry not fully specified)”, the “TLR8 HEK 5 uM” value was found to be 0.899.

(Values after patent US20240384268A1, “Oligonucleotides” (Hudson Institute of Medical Research, priority 2021, published 2024).)
